In PubChem BioAssay AID651569 (Sanford-Burnham Center for Chemical Genomics, 2012):
Calls of active or inactive are those of the source. The rule behind the calls is not given here.

Test system: luminescent cytotoxicity (cell viability) counter-screen
Assay: cytotoxicity of Gli-SUFU antagonist hits, dose response, cytotoxicity control for Gli-SUFU antagonist project, cell-based, luminescence, uHTS hits (AID 651569);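 note: compound exposure lasted overnight before the viability readout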

SMILES | IC50
CCn1c(=NC(=O)CS(=O)(=O)c2ccccc2)sc2cccc(OC)c21 | > 20 µM (inactive)
CC(C)Cn1c(N)c(C(=O)COC(=O)C2Cc3ccccc3CN2S(C)(=O)=O)c(=O)n(C)c1=O (stereo unspecified) | > 20 µM (inactive)
CCN(CC)S(=O)(=O)c1ccc(C)c(NC(=S)N2CCN(Cc3ccc4c(c3)OCO4)CC2)c1 | > 20 µM (inactive)
Nc1ccc(Br)cc1-c1nc2ccccc2[nH]c1=O | > 20 µM (inactive)
O=C(Nc1cc2c3c(c1)C1CCCC1CN3CC1CCCC21)c1ccc([N+](=O)[O-])cc1 (stereo unspecified) | > 20 µM (inactive)
CCn1cc[n+](C)c1P(c1ccccc1)c1ccccc1 | > 20 µM (inactive)
O=[N+]([O-])c1ccc(N2CCN(C(=S)NCc3ccc(Cl)cc3)CC2)cc1 | > 20 µM (inactive)
CCN(CC)S(=O)(=O)c1ccc(S(=O)(=O)N2CCCC(C(=O)NC3CC3)C2)cc1 (stereo unspecified) | > 20 µM (inactive)
c1ccc(-c2cn(-c3ccccc3)c3[n+]2CCS3)cc1 | > 20 µM (inactive)
C[C@@H]1COC(=O)[C@@H](NC(=O)OCC2c3ccccc3-c3ccccc32)C/C=C\C[C@@H](CC(=O)N(CCO)Cc2ccccc2)C(=O)N1 | > 20 µM (inactive)
CCOC(=O)c1sc2nc(CC(=O)OC)nc(NCc3ccc(Cl)cc3)c2c1C | > 20 µM (inactive)
Cc1ccc(S(=O)(=O)N2CCN(C(=O)c3ccc(S(=O)(=O)N4CCCC4)cc3)CC2)cc1 | > 20 µM (inactive)
CC(C)C(=O)N1CCN(c2ccccc2NC(=O)COc2ccccc2)CC1 | > 20 µM (inactive)
Cc1sc2ncnc(N3CCN(S(=O)(=O)c4ccc(C(C)(C)C)cc4)CC3)c2c1C | > 20 µM (inactive)
CC1Cc2cc(S(=O)(=O)N3CCC(C(=O)N4CCN(c5ccccc5F)CC4)CC3)ccc2N1C(=O)C1CC1 (stereo unspecified) | 7.01 µM
CCCCOC(=O)c1[nH]c2c(c1C)C(=O)CC(c1cc(OC)c(OC)c(OC)c1)C2 (stereo unspecified) | > 20 µM (inactive)
Cc1nc2ccccc2n1CC(=O)NC(C)C1CC2CCC1C2 (stereo unspecified) | > 20 µM (inactive)
CCOc1ccc2[nH]c3c(N4CCN(C(=O)c5ccco5)CC4)ncnc3c2c1 | > 20 µM (inactive)
CC(=O)/C(=N\Nc1ccc(Cl)cc1Cl)Sc1cccc2cccnc12 | > 20 µM (inactive)
Cc1nc2sccn2c1-c1csc(NCc2ccccc2)n1 | > 20 µM (inactive)
COc1ccccc1-c1c(-c2ccc(O)cc2O)n[nH]c1C(F)(F)F | > 20 µM (inactive)
COc1ccccc1N1CCN(c2ncc(C(=O)N3CCN(c4cccc(Cl)c4)CC3)c3ccccc23)CC1 | > 20 µM (inactive)
Cc1c(CCOC(=O)C23CC4CC(CC(C)(C4)C2)C3)sc[n+]1Cc1ccccc1 | > 20 µM (inactive)

SMILES | IC50
O=C(c1cccc(S(=O)(=O)N2CCN(c3ccccc3)CC2)c1)N1CCCC(C(F)(F)F)C1 (stereo unspecified) | > 20 µM (inactive)
COc1ccc(OC)c(Cc2cnc3nc(N)nc(N)c3c2C)c1 | > 20 µM (inactive)
Cc1nc2ccccc2c2c1CC(C(C)(Cl)Br)O2 (stereo unspecified) | > 20 µM (inactive)
Cc1ccc(S(=O)(=O)NCCC2=CCCCC2)cc1C(N)=O | > 20 µM (inactive)
CCOc1ccc(-c2nc(CSCC(=O)NCC3CCCO3)c(C)o2)cc1 (stereo unspecified) | > 20 µM (inactive)
O=C(NCCNc1ccnc2cc(Cl)ccc12)c1ccccc1F | > 20 µM (inactive)
CCOc1ccc(-c2nc(CSCC(=O)NC3CC3)c(C)o2)cc1 | > 20 µM (inactive)
CCC(C)NS(=O)(=O)c1ccc(S(=O)(=O)N2CCCC3(CCCCC3)C2)cc1 (stereo unspecified) | > 20 µM (inactive)
O=C(N[C@H]1C/C=C\C[C@@H](CC(=O)N(CCO)Cc2ccccc2)C(=O)N[C@H](Cc2c[nH]c3ccccc23)COC1=O)OCC1c2ccccc2-c2ccccc21 | > 20 µM (inactive)
CCc1cc(C(=O)NC2CCCN(Cc3ccccc3F)C2)n(C)n1 (stereo unspecified) | > 20 µM (inactive)
CC(C)Cc1ccc(C(C)C(=O)Nc2cccnc2)cc1 (stereo unspecified) | > 20 µM (inactive)
Cc1cc(C)c(C)c(S(=O)(=O)N2CCN(c3ncnc4ccccc34)CC2)c1C | > 20 µM (inactive)
O=C(Cn1cc(C(=O)C2CC2)c2ccccc21)Nc1ccccc1Cl | > 20 µM (inactive)
O=C(NC1CCCC1)c1cc(COc2ccc3ncccc3c2)on1 | > 20 µM (inactive)
c1ccc(Cn2c(-c3ccccc3)c[n+]3c2SCCC3)cc1 | > 20 µM (inactive)
COc1ccccc1-n1c(-c2ccccc2)c[n+]2c1CCc1ccccc1-2 | > 20 µM (inactive)
Brc1ccc(-[n+]2c(-c3ccccc3)cc(-c3ccccc3)cc2-c2ccccc2)cc1 | > 20 µM (inactive)
COc1cccc(CN(C)C(=O)c2cc(COc3ccc4ncccc4c3)on2)c1 | > 20 µM (inactive)
C#CC[N+](C)(C)CCCCCCCCCCCC | > 20 µM (inactive)
Cn1c(=O)c2c(nc(NCc3ccco3)n2Cc2ccc(Cl)cc2Cl)n(C)c1=O | > 20 µM (inactive)
CCOC(=O)CSc1c(-c2cccs2)[nH]c2ccccc12 | > 20 µM (inactive)
Cc1cc(Br)c(S(=O)(=O)NCc2ccncc2)cc1C | > 20 µM (inactive)
CCOc1ccc(S(=O)(=O)NCc2ccncc2)cc1NC(=O)c1ccccc1 | > 20 µM (inactive)
